In paper PMC10762035, “Molecular basis of human trace amine-associated receptor 1 activation” (Nature Communications, 2024):
Numbering of substitutions follows the chain as printed. Several values for one entry are separate records, joined by “and”; a condition that tells them apart may be missing. Equal entries are not always repeated. Where two headings read alike, the source gives them in different places.

Key:
Assay type in all cases: cell-based
[1] = target: T1, hTA1 I290Y (Homo sapiens, UniProt Q96RJ0, I290Y); assay: GloSensor cAMP accumulation assay, I290Y mutant; details: for Normalized Luminescence Counts for Concentration Response Curves: I120Y, log[Agonist], single replicates
T1 construct: expressed in transfected cells; host or cells: HEK293T
T1 sequence (Q96RJ0 1-339 I290Y): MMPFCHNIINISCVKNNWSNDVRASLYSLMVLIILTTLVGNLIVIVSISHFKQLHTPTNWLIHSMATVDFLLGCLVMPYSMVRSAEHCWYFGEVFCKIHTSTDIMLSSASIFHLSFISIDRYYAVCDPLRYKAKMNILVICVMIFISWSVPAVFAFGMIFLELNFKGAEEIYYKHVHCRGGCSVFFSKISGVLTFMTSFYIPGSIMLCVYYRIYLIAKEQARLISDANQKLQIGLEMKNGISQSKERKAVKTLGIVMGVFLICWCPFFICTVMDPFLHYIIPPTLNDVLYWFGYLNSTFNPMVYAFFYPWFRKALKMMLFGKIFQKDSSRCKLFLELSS

[2] = target: T2, hTA1 (Homo sapiens, UniProt Q96RJ0); assay: Screen of 89 aminergic compounds at 10 µM, cAMP accumulation in HEK293T cells; details: 10 µM of compound; HEK293T; threshold log2-fold change of 2;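 further: HEK293T cells co-transfected with hTA1 and GloSensor cAMP reporter, cAMP accumulation detected by luminescence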
T2 construct: expressed in transfected cells; host or cells: HEK293T
T2 sequence (Q96RJ0 1-339): T1 sequence (Q96RJ0 1-339 I290Y) with Y290I

[3] = target: T3, hTA1 T271A (Homo sapiens, UniProt Q96RJ0, T271A); assay: GloSensor cAMP accumulation assay, T271A mutant
T3 construct: expressed in transfected cells; host or cells: HEK293T
T3 sequence (Q96RJ0 1-339 T271A): T1 sequence (Q96RJ0 1-339 I290Y) with T271A, Y290I

[4] = target: T4, hTA1 C88S (Homo sapiens, UniProt Q96RJ0, C88S); assay: GloSensor cAMP accumulation assay, C88S mutant; details: for Normalized Luminescence Counts: C88S (N=2), log[Agonist]
T4 construct: expressed in transfected cells; host or cells: HEK293T
T4 sequence (Q96RJ0 1-339 C88S): T1 sequence (Q96RJ0 1-339 I290Y) with C88S, Y290I

Normalized Luminescence Counts for Concentration Response Curves ([1]; M -12.522): -3.7267
Emax values of Asenapine ([1]; I290Y, Mean of one experiment): 56.131 and 42.2396
Emax ([1]; I290Y, Mean of one experiment, read-out: Emax values of Asenapine): 54.9%
EC50 ([1]; I290Y, Mean of one experiment, read-out: pEC50 values of Asenapine (converted)): 252 nM and 215 nM and 383 nM
EC50 ([1]; I290Y, read-out: EC50): 275 nM
Emax ([1]; I290Y, read-out: Span ± SEM (Emax normalized to β-PEA)): 51.1 ± 4.43%
Emax ([1]; I290Y, relative to β-PEA, read-out: Emax): 51.1%
ΔEmax values (each mutant value - WT average), I290Y, Mean ([1]; hTA1 I290Y mutant vs WT average, Figure 6B, each line is one experiment (3 replicates)): -33.855 and -32.5762 and -46.4677
increase of signal over DMSO-treated controls (hTA1 activation) [2]: ≥ 4 fold
reduction in potency vs wild type ([3]; T271A): roughly 4 fold
Emax values of Asenapine ([3]; T271A, Mean of one experiment): 88.882
Emax ([3]; T271A, Mean of one experiment, read-out: Emax values of Asenapine): 101%
EC50 ([3]; T271A, Mean of one experiment, read-out: pEC50 values of Asenapine (converted)): 1300 nM and 1020 nM
EC50 ([3]; T271A, n=2, read-out: EC50): 1150 nM
Emax ([3]; T271A, n=2, read-out: Span ± SEM (Emax normalized to β-PEA)): 94.8 ± 5.91%
ΔEmax values (each mutant value - WT average), T271A, Mean ([3]; hTA1 T271A mutant vs WT average, Figure 6B, each line is one experiment (3 replicates)): 11.9925 and 0.1748
ΔpEC50 values (each mutant value - WT average), Mean ([4]; C88S, Asenapine): -0.4947 and -0.3839
Emax values, Mean ([4]; C88S, Asenapine, per experiment, 3 replicates): 126.964 and 89.044
EC50 ([4]; C88S, Asenapine, per experiment, 3 replicates, read-out: pEC50 values Mean (converted)): 270 nM and 210 nM
EC50 ([4]; C88S, n=2, read-out: EC50): 238 nM
Emax ([4]; C88S, relative to β-PEA, read-out: Emax): 108%
SMILES: CN1CC2c3ccccc3Oc3ccc(Cl)cc3C2C1 (stereo not drawn) [asenapine]
Normalized Luminescence Counts for Concentration Response Curves ([1]; M -7): 15.0486 and 28.2836 and 14.433 and 14.2815 and 11.35 and 10.6171 and 4.9397 and 9.4516 and 7.196
Normalized Luminescence Counts for Concentration Response Curves ([1]; M -7.522): 3.6603 and 8.277 and 2.121 and 8.052 and 3.288 and 0.7233 and -1.828 and 2.684 and 1.556
Normalized Luminescence Counts for Concentration Response Curves ([1]; M -8): 2.121 and 5.507 and 1.506 and 4.021 and -2.208 and 3.288 and -1.828 and -2.956 and -5.212
Normalized Luminescence Counts for Concentration Response Curves ([1]; M -8.522): -2.188 and 0.2746 and -1.264 and -1.842 (2×) and -4.04 and -6.34 and -5.212 (2×)
Normalized Luminescence Counts for Concentration Response Curves ([1]; M -9): -1.572 and -0.6488 and -1.264 and -5.506 and -1.109 and -5.873 and -4.0841 and -5.212 (2×)
Normalized Luminescence Counts for Concentration Response Curves ([1]; M -9.522): -3.419 and -1.264 and -3.7267 and -3.674 and -1.109 and -6.239 and -5.212 (2×) and -4.0841
Normalized Luminescence Counts for Concentration Response Curves ([1]; M -10): -2.496 and -2.188 and -2.803 and -2.575 and 2.189 and 2.922 and -4.0841 and -1.828 and -2.956
Normalized Luminescence Counts for Concentration Response Curves ([1]; M -10.522): -1.88 (2×) and -1.264 and -6.605 (2×) and -3.307 and -1.828 (2×) and -0.7002
Normalized Luminescence Counts for Concentration Response Curves ([1]; M -11): -2.188 and -1.88 and -2.496 and -2.575 and -5.506 and -7.705 and -6.34 and -4.0841 and -5.212
Normalized Luminescence Counts for Concentration Response Curves ([1]; M -11.522): -2.188 and -1.264 (2×) and -1.475 and -4.773 and -4.407 and -4.0841 (2×) and -2.956
Normalized Luminescence Counts for Concentration Response Curves ([1]; M -12): -3.111 and -2.496 and -2.188 and -5.873 and -5.14 and -2.941 and -1.828 and -2.956 and -4.0841
Normalized Luminescence Counts ([4]; Asenapine, M -5): 78.2534 and 81.5764 and 79.8011 and 111.871 and 108.238 and 123.304
Normalized Luminescence Counts ([4]; Asenapine, M -5.522): 94.436 and 87.9948 and 83.989 and 130.463 and 114.596 and 122.075
Normalized Luminescence Counts ([4]; Asenapine, M -6): 79.8011 and 74.9077 and 70.7881 and 118.656 and 108.719 and 100.545
Normalized Luminescence Counts ([4]; Asenapine, M -6.522): 57.5416 and 54.7649 and 49.5528 and 65.7127 and 60.6375 and 65.5525
Normalized Luminescence Counts ([4]; Asenapine, M -7): 23.993 and 22.8778 and 24.6531 and 32.3228 and 28.1557 and 35.9556
Normalized Luminescence Counts ([4]; Asenapine, M -7.522): 10.9969 and 9.859 and 9.563 and 7.801 and 8.763 and 9.724
Normalized Luminescence Counts ([4]; Asenapine, M -8): 6.65 and 6.24 and 5.148 and 4.382 and 5.237 and 6.305
